In patent US12098180B2, “Compositions and uses of vasoactive intestinal peptide (VIP) antagonists” (EMORY UNIVERSITY, priority 2018, dated 2024):

Legend:
[1] = test system: T cells from luciferase+C57/BL6 mice; assay: T cell proliferation in short-term culture with plate bound anti-CD3 antibody and IL-2; format: cell-based
Protocol: T cells from luciferase+C57/BL6 mice were harvested and cultured in 96-well plate with 1 μg/ml anti-CD3 antibody and 30 U/ml IL-2 in the presence of original VIPhyb, Ant-1, Ant-2, Ant-3, Ant-4, Ant-5, Ant-6, Ant-7 or Ant-8 at 1 μM.
T cells from luciferase+C57/BL6 mice were harvested and cultured in 96-well plate with either 0.5 μg/ml or 1 μg/ml anti-CD3 antibody and 30 U/ml IL-2 in the presence of original VIPhyb or Ant-8 at 0.5 μM, 1 μM or 3 μM.
The peptides (SEQ ID NO: 3-10 in FIG. 1) were added to short-term cultures of luciferase positive T-cells cultured in the presence of plate bound anti CD3 antibody in 96 well plates. The concentration of anti-CD3 antibody was either 0.5 mcg per ml or 1 mcg per ml. The T-cells from luciferase transgenic mice were added in the presence of low-dose IL-2 and 0.5 micromolar, 1 micromolar, or 3 micromolar concentrations of the original VIPhyb peptide or the alternative ANT-1 to ANT-8 peptide sequences were added.

[2] = test system: T cells from Chronic lymphocytic leukemia (CLL) donors; assay: Ex vivo expansion of T cells with anti-CD3/28 beads and IL-2; format: cell-based; conditions: anti-CD3/28 beads and 30 U/mL IL-2
acute leukemia = conditions: Oncoimmunology, 2017, 6(5):e1304336; cited from earlier work

With “KPRRPYTDNYTRLRKQMAVKKYLNLILN [ANT-8, VIPhyb variant with S to L substitution at position 25]” the “T-cell proliferation using lower concentrations of anti-CD3” value ([1]; lower anti-CD3 concentration (0.5 mcg per ml), compared to control cultures with plate bound anti-CD3 and no added peptides) was “more modest and not significantly different from control cultures”, the “antagonist activity compared to the native VIPhyb” value ([1]; overall conclusion from the T-cell proliferation cultures) was “improved antagonist activity” and the “T-cell proliferation at 24 hours” value ([1]; peptide at 0.5, 1 and 3 micromolar, compared to the original VIPhyb peptide at the same concentrations) was “enhanced T-cell proliferation”. For the same sequence, the “yields of T cells during ex vivo expansion” value [2] was “enhance yields of T cells”.
In the case of “KPRRPYTDNYTRLRKQMAVKKYLNSILN [VIPhyb, chimeric peptide VIP antagonist; six N-terminal amino acids of native VIP replaced]”, the “autologous anti-leukemia T cell response” value (acute leukemia) is given as “enhances the autologous anti-leukemia T cell response”.
